How the values were obtained:
[1] = system: EGFR Del19/T790M/C797S (H1975-clone #28); assay: EGFR degradation HTRF assay, H1975-clone #28 DTC cells; assay type: cell-based; details: H1975 # 28 DTC cells; for DC50: EGFR degradation, IC50 (DC50) from curve fit, read-out: DC50(nM) H1975 # 28 DTC; for Dmax (%) H1975 # 28 DTC: maximum percentage of inhibition (degradation)
Summary of the method: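 Read-out is an HTRF EGFR signal (337 nm excitation, 665/620 nm) from lysates of mutant-EGFR H1975 clones in which only the exogenous EGFR survives knockout. Treatment ran 16h at 37° C. from 10 uM final downward in 5-fold steps. DC50 comes from a logistic fit and Dmax is the maximal degradation.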

[2] = biological target: T1, EGFR L858R/T790M/C797S (BaF3-LTC cells) (Homo sapiens, UniProt P00533, C797S/L858R/T790M); assay: EGFR degradation HTRF assay, BaF3-LTC cells; assay type: cell-based; details: BaF3-LTC cells; for DC50: EGFR degradation, IC50 (DC50) from curve fit, read-out: DC50(nM) BaF3-LTC; for Dmax: maximum percentage of inhibition (degradation), read-out: Dmax (%) BaF3-LTC
T1 construct: expressed in transfected cells; host or cells: BaF3
Summary of the method: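 Cells treated 16 h at 37 °C, 5% CO2 in medium with 0.2% DMSO; top final concentration 10 uM, 5-fold dilution, 8 doses. Lysates read by HTRF (665/620 nm); degradation % versus DMSO high control, DC50 from four-parameter fit, Dmax as maximal degradation.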

T1 sequence (P00533 25-1210 T790M/C797S/L858R): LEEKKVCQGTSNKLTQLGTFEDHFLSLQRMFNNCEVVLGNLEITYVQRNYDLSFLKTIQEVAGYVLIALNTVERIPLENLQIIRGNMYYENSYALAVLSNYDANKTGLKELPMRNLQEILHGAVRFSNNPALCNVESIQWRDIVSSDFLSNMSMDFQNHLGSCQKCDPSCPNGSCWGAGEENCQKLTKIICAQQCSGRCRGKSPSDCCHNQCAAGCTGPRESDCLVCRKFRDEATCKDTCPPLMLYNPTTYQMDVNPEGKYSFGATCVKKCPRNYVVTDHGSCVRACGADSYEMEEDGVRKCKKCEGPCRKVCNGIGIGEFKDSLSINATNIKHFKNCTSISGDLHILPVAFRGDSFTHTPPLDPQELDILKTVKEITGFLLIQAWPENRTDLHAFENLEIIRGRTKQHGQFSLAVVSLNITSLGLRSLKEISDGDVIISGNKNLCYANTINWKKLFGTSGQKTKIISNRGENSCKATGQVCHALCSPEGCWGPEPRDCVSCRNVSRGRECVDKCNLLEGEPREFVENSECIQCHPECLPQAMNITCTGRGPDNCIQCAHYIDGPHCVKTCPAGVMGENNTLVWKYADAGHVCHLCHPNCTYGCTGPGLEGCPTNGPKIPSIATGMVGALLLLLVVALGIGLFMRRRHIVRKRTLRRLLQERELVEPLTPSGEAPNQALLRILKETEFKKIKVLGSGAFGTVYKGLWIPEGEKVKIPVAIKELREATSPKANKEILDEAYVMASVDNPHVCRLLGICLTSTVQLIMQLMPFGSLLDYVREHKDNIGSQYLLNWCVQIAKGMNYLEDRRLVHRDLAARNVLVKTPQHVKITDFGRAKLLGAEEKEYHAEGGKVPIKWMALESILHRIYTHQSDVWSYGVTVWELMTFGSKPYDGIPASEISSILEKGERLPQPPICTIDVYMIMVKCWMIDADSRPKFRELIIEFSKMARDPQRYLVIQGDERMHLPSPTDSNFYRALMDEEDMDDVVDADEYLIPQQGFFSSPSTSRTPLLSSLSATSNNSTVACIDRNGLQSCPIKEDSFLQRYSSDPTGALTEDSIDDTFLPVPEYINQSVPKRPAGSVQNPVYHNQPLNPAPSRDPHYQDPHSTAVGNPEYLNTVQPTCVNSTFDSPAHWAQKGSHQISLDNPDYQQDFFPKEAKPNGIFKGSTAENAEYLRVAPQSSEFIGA

Row | Compound | DC50 [1] | Dmax (%) H1975 # 28 DTC [1] | DC50 [2] | Dmax [2]
1 | CCOc1cc(N2CCC(N3CCN(CCc4cc(F)c([C@H]5CCC(=O)NC5=O)c(F)c4)CC3)CC2)c(CC)cc1Nc1ncc(C)c(Nc2cc(F)c3nc(CC)ccc3c2P(C)(C)=O)n1 [Example 733, (R)-3-(4-(2-(4-(1-(4-((4-((5-(dimethylphosphoryl)-2-ethyl-8-fluoroquinolin-6-yl)amino)-5-methylpyrimidin-2-yl)amino)-5-ethoxy-2-ethylphenyl)piperidin-4-yl)piperazin-1-yl)ethyl)-2,6-difluorophenyl)piperidine-2,6-dione] | 7.25 nM | 84.52% | 89.9 nM | –
2 | CCc1ccc2c(P(C)(C)=O)c(Nc3nc(Nc4cc(CC)c(N5CCC(N6CCN(CCCOc7cc(F)c([C@H]8CCC(=O)NC8=O)c(F)c7)CC6)CC5)cc4OC)ncc3Br)ccc2n1 [Example 734, (R)-3-(4-(3-(4-(1-(4-((5-bromo-4-((5-(dimethylphosphoryl)-2-ethylquinolin-6-yl)amino)pyrimidin-2-yl)amino)-2-ethyl-5-methoxyphenyl)piperidin-4-yl)piperazin-1-yl)propoxy)-2,6-difluorophenyl)piperidine-2,6-dione] | 0.9 nM | 76.3% | 7.79 nM | 92.2%
3 | CCOc1cc(N2CCC(N3CCN(CCCOc4cc(F)c([C@H]5CCC(=O)NC5=O)c(F)c4)CC3)CC2)c(CC)cc1Nc1ncc(Br)c(Nc2ccc3c(=O)n(CC)ncc3c2P(C)(C)=O)n1 [Example 735, (R)-3-(4-(3-(4-(1-(4-((5-bromo-4-((5-(dimethylphosphoryl)-2-ethyl-1-oxo-1,2-dihydrophthalazin-6-yl)amino)pyrimidin-2-yl)amino)-5-ethoxy-2-ethylphenyl)piperidin-4-yl)piperazin-1-yl)propoxy)-2,6-difluorophenyl)piperidine-2,6-dione] | 0.641 nM | 80.09% | 18 nM | 87.4%
4 | CCOc1cc(N2CCC(N3CCN(CCc4c(F)ccc5c4n(C)c(=O)n5C4CCC(=O)NC4=O)CC3)CC2)c(CC)cc1Nc1ncc(Br)c(Nc2ccc3nc(CC)ncc3c2P(C)(C)=O)n1 (stereo not drawn) [Example 736, 3-(4-(2-(4-(1-(4-((5-bromo-4-((5-(dimethylphosphoryl)-2-ethylquinazolin-6-yl)amino)pyrimidin-2-yl)amino)-5-ethoxy-2-ethylphenyl)piperidin-4-yl)piperazin-1-yl)ethyl)-5-fluoro-3-methyl-2-oxo-2,3-dihydro-1H-benzol[d]imidazol-1-yl)piperidine-2,6-dione] | 0.564 nM | 81.93% | 4.01 nM | –
5 | CCOc1cc(N2CCC(N3CCN(CCc4cccc5c4n(CC)c(=O)n5C4CCC(=O)NC4=O)CC3)CC2)c(CC)cc1Nc1ncc(Br)c(Nc2ccc3nc(CC)ncc3c2P(C)(C)=O)n1 (stereo not drawn) [Example 737, 3-(4-(2-(4-(1-(4-((5-bromo-4-((5-(dimethylphosphoryl)-2-ethylquinazolin-6-yl)amino)pyrimidin-2-yl)amino)-5-ethoxy-2-ethylphenyl)piperidin-4-yl)piperazin-1-yl)ethyl)-3-ethyl-2-oxo-2,3-dihydro-1H-benzo[d]imidazol-1-yl)piperidine-2,6-dione] | 0.944 nM | 78.21% | 3.72 nM | –
6 | CCOc1cc(N2CCC(N3CCN(CCc4cc(F)c([C@H]5CCC(=O)NC5=O)c(F)c4)CC3)CC2)c(CC)cc1Nc1ncc(Br)c(Nc2ccc3nc(C)ncc3c2P(C)(C)=O)n1 [Example 738, (R)-3-(4-(2-(4-(1-(4-((5-bromo-4-((5-(dimethylphosphoryl)-2-methylquinazolin-6-yl)amino)pyrimidin-2-yl)amino)-5-ethoxy-2-ethylphenyl)piperidin-4-yl)piperazin-1-yl)ethyl)-2,6-difluorophenyl)piperidine-2,6-dione] | 0.64 nM | 84.3% | 6.73 nM | –
7 | CCc1cc(Nc2ncc(Br)c(Nc3ccc4nc(C)ncc4c3P(C)(C)=O)n2)c(OC)cc1N1CCC(N2CCN(CCc3cc(F)c([C@H]4CCC(=O)NC4=O)c(F)c3)CC2)CC1 [Example 739, (R)-3-(4-(2-(4-(1-(4-((5-bromo-4-((5-(dimethylphosphoryl)-2-methylquinazolin-6-yl)amino)pyrimidin-2-yl)amino)-2-ethyl-5-methoxyphenyl)piperidin-4-yl)piperazin-1-yl)ethyl)-2,6-difluorophenyl)piperidine-2,6-dione] | 0.614 nM | 85.55% | 2.89 nM | –
8 | CCc1cc(Nc2ncc(Br)c(Nc3ccc4nc(C)ncc4c3P(C)(C)=O)n2)c(OC)cc1N1CCC(N2CCN(C(=O)[C@H]3CN(c4cc(F)c([C@H]5CCC(=O)NC5=O)c(F)c4)CC3(C)C)CC2)CC1 [Example 740, (R)-3-(4-((R)-4-(4-(1-(4-((5-bromo-4-((5-(dimethylphosphoryl)-2-methylquinazolin-6-yl)amino)pyrimidin-2-yl)amino)-2-ethyl-5-methoxyphenyl)piperidin-4-yl)piperazine-1-carbonyl)-3,3-dimethylpyrrolidin-1-yl)-2,6-difluorophenyl)piperidine-2,6-dione] | 0.717 nM | 87.27% | 4.11 nM | –
9 | CCc1cc(Nc2ncc(Br)c(Nc3ccc4nc(C5CC5)ccc4c3P(C)(C)=O)n2)c(OC)cc1N1CCC(N2CCN(CCc3cc(F)c([C@H]4CCC(=O)NC4=O)c(F)c3)CC2)CC1 [Example 741, (R)-3-(4-(2-(4-(1-(4-((5-bromo-4-((2-cyclopropyl-5-(dimethylphosphoryl)quinolin-6-yl)amino)pyrimidin-2-yl)amino)-2-ethyl-5-methoxyphenyl)piperidin-4-yl)piperazin-1-yl)ethyl)-2,6-difluorophenyl)piperidine-2,6-dione] | 0.761 nM | 80.67% | 11.2 nM | –
10 | CCOc1cc(N2CCC(N3CCN(CCc4cc(F)c(F)c5c4n(CC)c(=O)n5C4CCC(=O)NC4=O)CC3)CC2)c(CC)cc1Nc1ncc(Br)c(Nc2ccc3nc(CC)ccc3c2P(C)(C)=O)n1 (stereo not drawn) [Example 742, 3-(4-(2-(4-(1-(4-((5-bromo-4-((5-(dimethylphosphoryl)-2-ethylquinolin-6-yl)amino)pyrimidin-2-yl)amino)-5-ethoxy-2-ethylphenyl)piperidin-4-yl)piperazin-1-yl)ethyl)-3-ethyl-6,7-difluoro-2-oxo-2,3-dihydro-1H-benzo[d]imidazol-1-yl)piperidine-2,6-dione] | 3.52 nM | 68.91% | 36.5 nM | –
11 | CCOc1cc(N2CCC(N3CCN(CCc4cc(F)c(F)c5c4n(CC)c(=O)n5C4CCC(=O)NC4=O)CC3)CC2)c(CC)cc1Nc1ncc(Br)c(Nc2ccc3c(=O)n(CC)ncc3c2P(C)(C)=O)n1 (stereo not drawn) [Example 743, 3-(4-(2-(4-(1-(4-((5-bromo-4-((5-(dimethylphosphoryl)-2-ethyl-1-oxo-1,2-dihydrophthalazin-6-yl)amino)pyrimidin-2-yl)amino)-5-ethoxy-2-ethylphenyl)piperidin-4-yl)piperazin-1-yl)ethyl)-3-ethyl-6,7-difluoro-2-oxo-2,3-dihydro-1H-benzo[d]imidazol-1-yl)piperidine-2,6-dione] | 2.42 nM | 75.96% | 55.9 nM | 79.7%
12 | CCc1ccc2c(P(C)(C)=O)c(Nc3nc(Nc4cc(CC)c(N5CCC(N6CCN(CCc7cc(F)c([C@H]8CCC(=O)NC8=O)c(F)c7)CC6)CC5)cc4OC)ncc3Cl)ccc2n1 [Example 744, (R)-3-(4-(2-(4-(1-(4-((5-chloro-4-((5-(dimethylphosphoryl)-2-ethylquinolin-6-yl)amino)pyrimidin-2-yl)amino)-2-ethyl-5-methoxyphenyl)piperidin-4-yl)piperazin-1-yl)ethyl)-2,6-difluorophenyl)piperidine-2,6-dione] | 0.653 nM | 84.24% | 5.87 nM | –
13 | CCc1ccc2c(P(C)(C)=O)c(Nc3nc(Nc4cc(CC)c(N5CCC(C6CCN(CCc7cc(F)c([C@H]8CCC(=O)NC8=O)c(F)c7)CC6)CC5)cc4OC)ncc3Br)ccc2n1 [Example 745, (R)-3-(4-(2-(1′-(4-((5-bromo-4-((5-(dimethylphosphoryl)-2-ethylquinolin-6-yl)amino)pyrimidin-2-yl)amino)-2-ethyl-5-methoxyphenyl)-[4,4′-bipiperidin]-1-yl)ethyl)-2,6-difluorophenyl)piperidine-2,6-dione] | 2.25 nM | 75.21% | 40.3 nM | –
14 | CCOc1cc(N2CCC(N3CCN(C(=O)[C@H]4CN(c5cc(F)c([C@H]6CCC(=O)NC6=O)c(F)c5)CC4(C)C)CC3)CC2)c(CC)cc1Nc1ncc(Br)c(Nc2cc(F)c3nc(CC)ccc3c2P(C)(C)=O)n1 [Example 746, (R)-3-(4-((R)-4-(4-(1-(4-((5-bromo-4-((5-(dimethylphosphoryl)-2-ethyl-8-fluoroquinolin-6-yl)amino)pyrimidin-2-yl)amino)-5-ethoxy-2-ethylphenyl)piperidin-4-yl)piperazine-1-carbonyl)-3,3-dimethylpyrrolidin-1-yl)-2,6-difluorophenyl)piperidine-2,6-dione] | 11 nM | 77.61% | 30.9 nM | –

— patent US20230265116A1, “DEGRADATION OF (EGFR) BY CONJUGATION OF EGFR INHIBITORS WITH E3 LIGASE LIGAND AND METHODS OF USE” (BEIGENE, LTD., priority 2020, published 2023)
